Test system: direct pancreatic cancer xenografts (fine needle aspiration cells)
Assay: Ex vivo perturbability assay, low-density microarray RT-PCR
Assay type: cell-based
Parameters: key to RRM1 gene expression / NFKB1 gene expression / BNIP3L gene expression / VHL gene expression / DCK gene expression / HIF1B gene expression / IGF1R gene expression / MAPK1 gene expression / MAP2K2 gene expression / JUN gene expression / IHH gene expression: % of untreated control (treated sample normalized to untreated)
Details: treated normalized to untreated control
Text: Direct pancreatic cancer derived xenografts: Resected pancreatic adenocarcinomas are routinely implanted in nude mice at the Johns Hopkins Medical Institutions as a method to obtain enriched populations of neoplastic cells under an IRB-approved protocol from residual pancreatic cancer tumors. Tumor specimens from Whipple resection specimens were divided into 2-3 mm^3 pieces in antibiotic-containing RPMI media. Pieces of non-necrotic tissue were selected and immersed in Matrigel. Under anesthesia with isofluorane, tumors were implanted into five-to-six week-old female athymic (nu/nu) mice purchased from Harlan (Harlan Laboratories, Washington, D.C.). This research protocol was approved by the Johns Hopkins University Animal Use and Care Committee arid animals were maintained in accordance to guidelines of the American Association of Laboratory Animal Care. Tumors were propagated to subsequent cohorts of mice until a sufficient number were available for drug testing.
Fine needle aspiration (FNA): FNAs on mice were performed according to standard cytopathologic practice using 10 cc syringes and 25-gauge needles. The procedure was performed under inhaled general anesthesia with isofluorane. During each FNA procedure the first pass was smeared onto glass slides and used for morphologic analysis and quality control, (DiffQuik™ and Papanicoloau), and the second through sixth passes were used to acquire viable cells.
Ex vivo assay: FNA passes used to acquire viable cells were immediately transferred into 10 ml sterile prewarmed complete RPMI-1640 culture medium containing 10% FBS, penicillin (200 ug/ml), and streptomycin (200 ug/ml). Equivalent aliquots of cells were seeded in two wells of a 6-well polypropylene microplate. […] Following treatment, non-adherent and adherent cells (collected by scraping) were pooled together in a 1.5 mL microcentrifuge tube and centrifuged at 500 g for 5 mm at 4° C. After washing with PBS, cells were lysed in 100 μL of ice-cold RLT.
RNA extraction and cDNA generation: Total RNA was extracted from cells using the RNeasy™ Mini Kit (Qiagen, Valencia, Calif.) following the manufacturer's instructions. cDNA was synthesized using iScript cDNA synthesis kit (Bio-Rad) following the manufacturer's instructions.
Low-density micro arrays (LDMA): The samples were run in a customized assay with a 384-well format (ABI, Foster City, Calif.), where the expression of 45 to 381 relevant genes can be quantitatively tested. For this example, the array was designed with 8 replicated sections containing 48 wells, with primers of one gene per well: 3 housekeeping genes (HK: UBC, HPRT, SDHA), and 45 genes of interest. 50 μL of cDNA plus 50 μL of ABI mastermix were loaded onto each of two contiguous lanes to have duplicated readouts of every sample, and were run by real-time reverse transcriptase PCR (RT-PCR). The amount of change in the target genes was calculated by comparing the threshold cycle (CT) of each gene to the geometric mean of the CTs of the HK genes. Relative expression of the target genes was estimated using the formula: relative expression=2−^ΔCT, where ΔCT=CT (target gene)−CT (average of the 3 HK genes). The experiment was run in duplicate and mean values are analyzed.
Data analysis: The expression level of each gene in the treated sample was normalized to that of the untreated control. A significant change was defined when the gene expression either increases two-fold or more (>200%), or decreases to half or more (<50%). The rest is considered uninformative.

## Nc1ccn([C@@H]2O[C@H](CO)[C@@H](O)C2(F)F)c(=O)n1 [gemcitabine]
Case #1
  AXIN2 gene expression: 67
  BAX gene expression: 91
  BNIP3L gene expression: 109
  BRAF gene expression: 116
  BRCA1 gene expression: 81
  CCND1 gene expression: 127
  CXCR4 gene expression: 100
  CyclinB1 gene expression: 68
  DCK gene expression: 164
  EGFR gene expression: 124
  ERCC1 gene expression: 107
  FOS gene expression: 113
  GADD45A gene expression: 108
  GLI2 gene expression: 72
  HIF1A gene expression: 126
  HIF1B gene expression: 99
  IGF1R gene expression: 51
  IGFBP3 gene expression: 135
  IHH gene expression: 113
  MAP2K2 gene expression: 127
  MAPK3 gene expression: 152
  MDM2 gene expression: 134
  MSLN gene expression: 101
  NOTCH1 gene expression: 158
  NOTCH2 gene expression: 113
  PLK1 gene expression: 50
  PSCA gene expression: 106
  PTCH gene expression: 81
  SHH gene expression: 70
  Survivin gene expression: 81
  TGFA gene expression: 99
  VEGF gene expression: 106
  VHL gene expression: 104
  p21 gene expression: 96
Case #2
  AXIN2 gene expression: 63
  BAX gene expression: 95
  BNIP3L gene expression: 96
  BRAF gene expression: 98
  BRCA1 gene expression: 63
  CCND1 gene expression: 128
  CXCR4 gene expression: 5
  CyclinB1 gene expression: 99
  DCK gene expression: 112
  EGFR gene expression: 101
  ERCC1 gene expression: 78
  FOS gene expression: 115
  GADD45A gene expression: 108
  GLI2 gene expression: 82
  HIF1A gene expression: 111
  HIF1B gene expression: 129
  IGF1R gene expression: 105
  IGFBP3 gene expression: 205
  IHH gene expression: 131
  MAP2K2 gene expression: 78
  MAPK1 gene expression: 104
  MAPK3 gene expression: 71
  MDM2 gene expression: 92
  MSLN gene expression: 118
  NFKB1 gene expression: 138
  NOTCH1 gene expression: 138
  NOTCH2 gene expression: 119
  PLK1 gene expression: 34
  PSCA gene expression: 127
  PTCH gene expression: 102
  RRM1 gene expression: 166
  SHH gene expression: 108
  Survivin gene expression: 110
  TGFA gene expression: 113
  VEGF gene expression: 101
  VHL gene expression: 116
  p21 gene expression: 110
Case #3
  AXIN2 gene expression: 44
  BAX gene expression: 78
  BNIP3L gene expression: 82
  BRAF gene expression: 93
  BRCA1 gene expression: 84
  CCND1 gene expression: 106
  CXCR4 gene expression: 43
  CyclinB1 gene expression: 48
  DCK gene expression: 80
  EGFR gene expression: 70
  ERCC1 gene expression: 88
  FOS gene expression: 123
  GADD45A gene expression: 104
  GLI2 gene expression: 73
  HIF1A gene expression: 106
  HIF1B gene expression: 106
  IGF1R gene expression: 66
  IGFBP3 gene expression: 49
  IHH gene expression: 130
  MAP2K2 gene expression: 106
  MAPK3 gene expression: 109
  MDM2 gene expression: 137
  MSLN gene expression: 91
  NFKB1 gene expression: 94
  NOTCH1 gene expression: 132
  NOTCH2 gene expression: 103
  PLK1 gene expression: 36
  PSCA gene expression: 115
  PTCH gene expression: 53
  RRM1 gene expression: 81
  SHH gene expression: 65
  Survivin gene expression: 58
  TGFA gene expression: 92
  VEGF gene expression: 86
  VHL gene expression: 118
  p21 gene expression: 99
Case #4
  AXIN2 gene expression: 142
  BAX gene expression: 100
  BNIP3L gene expression: 115
  BRAF gene expression: 175
  BRCA1 gene expression: 343
  CCND1 gene expression: 171
  CXCR4 gene expression: 13
  CyclinB1 gene expression: 124
  DCK gene expression: 176
  EGFR gene expression: 54
  ERCC1 gene expression: 94
  FOS gene expression: 108
  GADD45A gene expression: 78
  GLI2 gene expression: 11
  HIF1A gene expression: 146
  HIF1B gene expression: 56
  IGF1R gene expression: 41
  IGFBP3 gene expression: 130
  IHH gene expression: 92
  JUN gene expression: 83
  MAP2K2 gene expression: 146
  MAPK1 gene expression: 68
  MAPK3 gene expression: 108
  MDM2 gene expression: 43
  MSLN gene expression: 89
  NFKB1 gene expression: 104
  NOTCH1 gene expression: 134
  NOTCH2 gene expression: 92
  PLK1 gene expression: 15
  PSCA gene expression: 81
  PTCH gene expression: 93
  RRM1 gene expression: 79
  SHH gene expression: 91
  Survivin gene expression: 166
  TGFA gene expression: 85
  VEGF gene expression: 103
  VHL gene expression: 127
  p21 gene expression: 102
Case #5
  AXIN2 gene expression: 210
  BAX gene expression: 109
  BNIP3L gene expression: 90
  BRAF gene expression: 146
  BRCA1 gene expression: 95
  CCND1 gene expression: 141
  CXCR4 gene expression: 229
  CyclinB1 gene expression: 53
  DCK gene expression: 132
  EGFR gene expression: 71
  ERCC1 gene expression: 105
  FOS gene expression: 112
  GADD45A gene expression: 121
  GLI2 gene expression: 118
  HIF1A gene expression: 108
  HIF1B gene expression: 65
  IGF1R gene expression: 61
  IGFBP3 gene expression: 122
  IHH gene expression: 141
  JUN gene expression: 135
  MAP2K2 gene expression: 151
  MAPK1 gene expression: 86
  MAPK3 gene expression: 95
  MDM2 gene expression: 73
  MSLN gene expression: 100
  NFKB1 gene expression: 163
  NOTCH1 gene expression: 89
  NOTCH2 gene expression: 56
  PLK1 gene expression: 21
  PSCA gene expression: 102
  PTCH gene expression: 48
  RRM1 gene expression: 92
  SHH gene expression: 113
  Survivin gene expression: 67
  TGFA gene expression: 97
  VEGF gene expression: 107
  VHL gene expression: 79
  p21 gene expression: 143
